Patent US7579019B2, “Pharmaceutical carrier device suitable for delivery of pharmaceutical compounds to mucosal surfaces” (priority 1997, dated 2009)

Test: systemic availability study in dogs, testosterone, RIA method (Example 40)
Assay type: in vivo
Details: female, bred hound, dog, plasma, other: buccal (film disc applied to the buccal mucosa), 0.8 mg per disc, mean of three dogs, buccal ½ inch disc of Example 39 film, 0.8 mg testosterone per disc, read-out: systemic plasma level, Mean
Text: The films obtained via Examples 38 and 39 are die-cut in ½ inch diameter discs to be characterized and to be used for a systemic availability study in three dogs (20-25 kg spayed female bred hounds). One disc of the film to be evaluated is applied to the inside of the mouth on the buccal mucosa. A slight pressure is applied for 10 seconds. Then, the oral cavity is examined to assure adherence of the film to the mucosa and over the course of the study, to monitor the erosion of the discs. Using an indwelling jugular catheter, blood samples are collected at specific intervals. The serum is characterized by an ELISA assay in the case of albuterol sulfate and by an RIA method for the testosterone study.
After application of ½ inch diameter discs, systemic plasma levels obtained at different intervals are given in nanograms per milliliter for the mean of the three dogs.

## C[C@]12CC[C@H]3[C@@H](CCC4=CC(=O)CC[C@@]43C)[C@@H]1CC[C@@H]2O [testosterone]
Time 0 minutes
  concentration at 0 min: 0 ng/mL
Time 5 minutes
  concentration at 5 min: 2.21 ng/mL
Time 10 minutes
  concentration at 10 min: 4.68 ng/mL
Time 15 minutes
  concentration at 15 min: 3.81 ng/mL
Time 30 minutes
  concentration at 30 min: 2.87 ng/mL
Time 60 minutes
  concentration at 60 min: 3.73 ng/mL
Time 90 minutes
  concentration at 90 min: 4.82 ng/mL
Time 120 minutes
  concentration at 120 min: 7.14 ng/mL
Time 150 minutes
  concentration at 150 min: 3.2 ng/mL
Time 180 minutes
  concentration at 180 min: 0.62 ng/mL
Time 240 minutes
  concentration at 240 min: 0.18 ng/mL
Time 360 minutes
  concentration at 360 min: 0.12 ng/mL
Time 480 minutes
  concentration at 480 min: 0.02 ng/mL
Time 720 minutes
  concentration at 720 min: 0.01 ng/mL
